In brackets after ≈: the same amount, converted by molar mass. Read-outs that look alike come from different tables or passages of the source. Marks after values point to notes of the source that are not given here.
Columns and labels:
saFabI [1] = target: T1, saFabI (Staphylococcus aureus (strain MRSA252), UniProt Q6GI75); test: saFabI inhibition kinetics; format: biochemical
[2] = target: M. tuberculosis enoyl-ACP reductase InhA (Mycobacterium tuberculosis (strain ATCC 25618 / H37Rv), UniProt P9WGR1); test: InhA inhibition kinetics; format: biochemical
S. aureus RN4220 = test: MIC microbroth dilution, S. aureus RN4220; format: cell-based, Staphylococcus aureus; conditions: Staphylococcus aureus
E. coli MG1655 ΔacrAB = test: microbe, parasite or virus in culture; format: cell-based, Escherichia coli; conditions: for MIC: Escherichia coli
E. coli MG1655 = test: MIC microbroth dilution, E. coli MG1655 with intact AcrAB efflux pump; format: cell-based, Escherichia coli; conditions: for MIC: Escherichia coli
F. tularensis LVS [3] = test: microbe, parasite or virus in culture; format: cell-based; conditions: Francisella tularensis; for MIC: read-out: MIC (μm), F. tularensis LVS, Table 3; for inhibition at 5 µg/mL: read-out: Francisella tularensis LVS, % inhib.
P. mirabilis ATCC35659 = test: MIC microbroth dilution, P. mirabilis ATCC35659; format: cell-based; conditions: Proteus mirabilis
M. tuberculosis H37Rv = test: MIC microbroth dilution, M. tuberculosis H37Rv; format: cell-based; conditions: Mycobacterium tuberculosis
B. pseudomallei Bp400 [4] = test: microbe, parasite or virus in culture; format: cell-based; conditions: Burkholderia pseudomallei
saFabI [5] = target: T1, saFabI; test: Jump dilution assay with saFabI; format: biochemical; conditions: preincubation with NADPH and saFabI
F. tularensis LVS [6] = conditions: data according to Ref. 69; cited from earlier work
B. pseudomallei Bp400 [7] = conditions: B. pseudomallei Bp400, data according to Ref. 69; cited from earlier work
Bt38 = test: microbe, parasite or virus in culture; format: cell-based; conditions: Burkholderia pseudomallei, read-out: Bt38, % inhib.
[8] = target: Francisella tularensis FabI (Francisella tularensis subsp. tularensis (strain SCHU S4 / Schu 4), UniProt Q5NGQ3); test: biochemical
bpFabI = bpFabI (Burkholderia pseudomallei, UniProt A0A0H3HP34); test: biochemical
bpFabV = bpFabV (Burkholderia pseudomallei, UniProt Q63TE9); format: biochemical; conditions: read-out: Burkholderia pseudomallei IC50 (μM), bpFabV
YpFabV = YpFabV (Yersinia pestis, UniProt Q8Z9U1); test: biochemical
Yersinia pestis = test: microbe, parasite or virus in culture; format: cell-based; conditions: read-out: Yersinia pestis, % inhib.
ecFabI = ecFabI (Escherichia coli (strain K12), UniProt P0AEK4); test: ecFabI inhibition kinetics; format: biochemical; conditions: Ki^app (nM), [S]/KS = 0.19
[9] = test system: PT166-resistant S. aureus RN4220 mutants; test: microbe, parasite or virus in culture; format: cell-based; conditions: Staphylococcus aureus
MRSA strain BAA1762 = test: Neutropenic mouse thigh infection model; format: in vivo, Swiss Webster mice; conditions: 100 mg/kg dose, MRSA BAA1762, neutropenic mouse
in vivo = conditions: female, ICR, mouse, ip, 100 mg/kg
[10] = RN4220, S. aureus RN4220, Table 3, read-out: MIC (μm)
[11] = RN4220, S. aureus RN4220, read-out: MIC
[12] = E. coli MG1655, Table 3, read-out: MIC (μm)
[13] = M. tuberculosis H37Rv, Table 3, read-out: MIC (μm)
[14] = H37RV, 4-pyridones table, read-out: Mycobacterium tuberculosis MIC (μg/mL) H37Rv

Cc1c(N)cccc1Cn1ccc(OCCc2cccs2)cc1=O [CG400549, reference compound]
affinity improvement for saFabI (saFabI [1]; relative to PT173): 1.5 fold | Ki [2]: 582 nM | MIC (S. aureus RN4220; [10]): 5.9 µM | MIC (S. aureus RN4220; [11]): 5.9 µM | MIC (E. coli MG1655 ΔacrAB; MG1655): > 375 µM | MIC (E. coli MG1655 ΔacrAB; MG1655, read-out: MIC (μm)): > 375 µM | lower antibacterial activity (E. coli MG1655; E. coli versus S. aureus, Table 3): > 64 fold | MIC (E. coli MG1655; [12]): > 375 µM | MIC (F. tularensis LVS [3]): 5.9 µM (≈ 2.01 µg/mL) | MIC (P. mirabilis ATCC35659; P. mirabilis ATCC35659, read-out: MIC (μm)): > 750 µM | MIC (M. tuberculosis H37Rv; [13]): > 300 µM | MIC (B. pseudomallei Bp400 [4]; BP400, read-out: MIC (μm)): 376 µM | off kinetics in jump dilution curve (saFabI [5]): rapid off kinetics

CCc1ccc(Oc2ccccc2)c(O)c1 [PT01, 5-ethyl-2-phenoxyphenol]
MIC (S. aureus RN4220; [10]): 2.3 µM | MIC (S. aureus RN4220; [11]): 2.3 µM | MIC (E. coli MG1655 ΔacrAB; MG1655): 0.6 µM (≈ 0.129 µg/mL) | MIC (E. coli MG1655 ΔacrAB; MG1655, read-out: MIC (μm)): 0.6 µM (≈ 0.129 µg/mL) | MIC (E. coli MG1655; [12]): 18.7 µM | MIC (M. tuberculosis H37Rv; [13]): 72.9 µM | MIC (μM) (F. tularensis LVS [6]): 0.1^c μM | MIC (μM) (B. pseudomallei Bp400 [7]): 326.7^c μM

CCCCCCc1cc(=O)c(Oc2ccc(N)cc2C)cn1C [PT155]
IC50 [2]: 107 nM | inhibition at 5 µg/mL (F. tularensis LVS [3]): 91% | MIC (M. tuberculosis H37Rv; [14]): 6.25 µg/mL | inhibition at 20 µg/mL (Bt38): 90% | IC50 [8]: 53 nM | IC50 (bpFabI): 140 nM | IC50 (bpFabV): 3 ± 0.6 µM | IC50 (YpFabV): > 50000 nM | inhibition at 40 µg/mL (Yersinia pestis): 26%

CCCCCCc1cc(=O)c(Oc2ccc([N+](=O)[O-])cc2)cn1C [PT156]
IC50 [2]: 407 nM | inhibition at 5 µg/mL (F. tularensis LVS [3]): 88% | MIC (M. tuberculosis H37Rv; [14]): 50 µg/mL | inhibition at 40 µg/mL (Bt38): 43% | IC50 (bpFabI): 960 ± 100 nM | IC50 (bpFabV): 0.56 ± 0.1 µM | IC50 (YpFabV): 180 nM | inhibition at 40 µg/mL (Yersinia pestis): 29%

CCCCCCc1cc(=O)c(Oc2ccccc2C)cn1C [PT166]
Ki (saFabI [1]; Ki (nM), saFabI): 2.7 ± 0.6 nM | Ki (saFabI [1]; Ki, saFabI): 2.7 nM | Ki (saFabI [1]; Ki^app (nM), saFabI, [S]/KS = 2): 10.1 ± 2.1 nM | Ki (saFabI [1]; Staphylococcus aureus Ki (nM), 4-pyridones table): 2.7 nM | Ki (ecFabI): 8.5 ± 0.2 nM | IC50 [2]: 28.6 nM | Ki [2]: 22 nM | MIC (S. aureus RN4220; RN4220, 4-pyridones table, read-out: Staphylococcus aureus MIC (μg/mL) RN4220): 0.24 µg/mL | MIC (S. aureus RN4220; [10]): 0.8 µM | MIC (S. aureus RN4220; [11]): 0.8 µM | MIC (S. aureus RN4220; RN4220, strain RN4220 (parent), Table 4, read-out: MIC μm): 0.8 µM | MIC (S. aureus RN4220; RN4220, text, read-out: MIC against Staphylococcus aureus strain RN4220): 0.24 µg/mL | Escherichia coli MIC (μg/mL) MG1655 ΔacrAB (E. coli MG1655 ΔacrAB; 4-pyridones table): 2 µg/mL | MIC (E. coli MG1655 ΔacrAB; MG1655): 6.7 µM (≈ 2.01 µg/mL) | MIC (E. coli MG1655 ΔacrAB; MG1655, read-out: MIC (μm)): 6.7 µM (≈ 2.01 µg/mL) | lower MIC against E. coli MG1655 lacking AcrAB (E. coli MG1655 ΔacrAB; relative to CG400549): > 50 fold | MIC (E. coli MG1655; MG1655, 4-pyridones table, in brackets, read-out: MIC for MG1655 with intact efflux pump): > 128 µg/mL | MIC (E. coli MG1655; MG1655, Table 2 footnote e, read-out: MIC against E. coli MG1655 with the intact AcrAB efflux pump): > 425 µM | MIC (F. tularensis LVS [3]): 0.4 µM (≈ 0.12 µg/mL) | MIC (P. mirabilis ATCC35659; ATCC35659, read-out: MIC (μm)): 214 µM (≈ 64 µg/mL) | MIC (M. tuberculosis H37Rv; [14]): 3.13 µg/mL | MIC (M. tuberculosis H37Rv; H37RV, M. tuberculosis, read-out: MIC, in vitro anti-mycobacterial activity): 10.5 µM | MIC (M. tuberculosis H37Rv; [13]): 10.5 µM | MIC (B. pseudomallei Bp400 [4]; BP400, read-out: Burkholderia pseudomallei MIC (μg/mL) Bp400): 64 µg/mL | MIC (B. pseudomallei Bp400 [4]; BP400, read-out: MIC (μm)): 214 µM | MIC ([9]; read-out: MIC μm, strain 166R.1, FabI A95V): 8.8 µM (≈ 2.63 µg/mL) | MIC ([9]; read-out: MIC μm, strain 166R.2, FabI A95V): 8.8 µM (≈ 2.63 µg/mL) | MIC ([9]; read-out: MIC μm, strain 166R.3, FabI A95V and F252L): 8.8 µM (≈ 2.63 µg/mL) | MIC ([9]; read-out: MIC μm, strain 166R.4, FabI A95V and E71D): 8.8 µM (≈ 2.63 µg/mL) | MIC ([9]; read-out: MIC μm, strain 166R.5, no change in fabI): 17.6 µM (≈ 5.27 µg/mL) | decrease of bacterial burden in the infected thigh (MRSA strain BAA1762): 2.8 log cfu/g tissue | IC50 [8]: 24 nM | AUC(0-t) (in vivo): 53000 ng·h/mL | Cmax (in vivo): 45900 ng/mL | Tmax (in vivo): 0.25 h | half-life (in vivo): 2.7 h

From US10071965B2, “Pyridone FabI inhibitors and uses thereof” (priority 2015, dated 2018)
